From ChEMBL document CHEMBL1201862, “PubChem BioAssay data set” (2004) come the findings set out here.

Test systems include RXF 393; UO-31; SW-620; 786-0; SK-MEL-2; IGROV-1; Malme-3M; RPMI-8226; MOLT-4; HT-29; ACHN; NCI-H460; SR; CCRF-CEM; KM12; M14; PC-3; TK-10; OVCAR-8; SK-OV-3.
Experiment in all cases: NCI-60 cell line screen, 48 h

The structures appear in SMILES notation.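 Tested at 5 concentrations; 48 h exposure; 96-well plates; endpoints linearly interpolated, else capped at highest concentration. GI50: concentration for 50% inhibition of growth.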 Active and inactive are the calls of the source. No stated cut-off is given here; in the data, active = GI50 up to about 1.1 µM and inactive = higher.

In the case of `Cc1ccc(Cc2nn(C)c(=O)n2-n2cccc2)cc1`, the GI50 with RXF 393, with UO-31, with SW-620, in the experiment with 786-0, with SK-MEL-2 and in the experiment with IGROV-1 was > 100 µM (inactive) throughout. Moreover, the GI50 in the experiment on Malme-3M, with RPMI-8226, with MOLT-4, in the experiment on HT-29, in the experiment on ACHN and with NCI-H460 was > 100 µM (inactive) in each case. Further, the GI50 in the experiment with SR, in the experiment with CCRF-CEM, in the experiment with KM12, in the experiment on M14, in the experiment on PC-3 and in the experiment on TK-10 was > 100 µM (inactive) throughout. The GI50 with OVCAR-8 and in the experiment on SK-OV-3 was > 100 µM (inactive) each time.

Regarding `CCCCCCCCCCCCCCCCCCOP(=O)([O-])OC1CC[N+](C)(C)CC1` [PERIFOSINE], the GI50 was 1.79 µM (inactive) with RXF 393; 8.91 µM (inactive) in the experiment with UO-31; 8.05 µM (inactive) in the experiment with SW-620; 2.73 µM (inactive) with 786-0; 13.8 µM (inactive) in the experiment on SK-MEL-2; 2.18 µM (inactive) in the experiment with IGROV-1. The GI50 in the experiment with Malme-3M was 7.06 µM (inactive); with RPMI-8226 it was 3.83 µM (inactive); with MOLT-4, 3.4 µM (inactive); with HT-29 it was 3.56 µM (inactive); in the experiment with ACHN it was 12.4 µM (inactive); in the experiment on NCI-H460, 1.75 µM (inactive). The GI50 in the experiment with SR was 1.11 µM (active); in the experiment on CCRF-CEM, 0.714 µM (active); in the experiment on KM12 it was 0.53 µM (active); in the experiment with M14, 2.97 µM (inactive); in the experiment on PC-3, 0.873 µM (active); in the experiment on TK-10, 2.04 µM (inactive). For the same molecule, the GI50 in the experiment with OVCAR-8 is 14.7 µM (inactive); in the experiment on SK-OV-3, 5.64 µM (inactive).

Take `O=C(/C=C/c1ccc2c(c1)OCO2)Cc1nc2ccccc2[nH]c1=O`: the GI50 with RXF 393 is 17.9 µM (inactive); in the experiment on UO-31 it was 22.9 µM (inactive); with SW-620 it was 30.4 µM (inactive); with 786-0, 16.7 µM (inactive); in the experiment with SK-MEL-2, 22 µM (inactive); in the experiment on IGROV-1 it was 21 µM (inactive). Besides, the GI50 in the experiment with Malme-3M is 18.3 µM (inactive); with RPMI-8226, 28.1 µM (inactive); with MOLT-4, 38.9 µM (inactive); with HT-29, 28.5 µM (inactive); with ACHN it was 13.6 µM (inactive); in the experiment on NCI-H460, 22.6 µM (inactive). Also, the GI50 with SR was 25.5 µM (inactive); with CCRF-CEM, 35.8 µM (inactive); with KM12, 18.9 µM (inactive); in the experiment on M14 it was 11.7 µM (inactive); with PC-3, 23.2 µM (inactive); with TK-10, 18.5 µM (inactive). The GI50 is 28.5 µM (inactive) with OVCAR-8 and 18.6 µM (inactive) with SK-OV-3.

Regarding `C[N+](C)(C)CC1CCc2ccccc2C1=O` (stereo not given), the GI50 was 14.2 µM (inactive) in the experiment on RXF 393; 18.3 µM (inactive) in the experiment on UO-31; 1.68 µM (inactive) with SW-620; 6.46 µM (inactive) with 786-0; 16.7 µM (inactive) in the experiment with SK-MEL-2; 11.6 µM (inactive) with IGROV-1. For the same molecule, the GI50 in the experiment with Malme-3M was 1.8 µM (inactive); in the experiment on RPMI-8226 it was 1.43 µM (inactive); in the experiment with MOLT-4 it was 2.32 µM (inactive); in the experiment with HT-29 it was 6.03 µM (inactive); in the experiment with ACHN, 7.55 µM (inactive); in the experiment on NCI-H460 it was 19.7 µM (inactive). The GI50 was 1.79 µM (inactive) in the experiment with SR; 2.55 µM (inactive) with CCRF-CEM; 10.8 µM (inactive) with KM12; 5.87 µM (inactive) in the experiment on M14; 15.5 µM (inactive) with PC-3; 16.1 µM (inactive) in the experiment with TK-10. The GI50 is 17.1 µM (inactive) in the experiment on OVCAR-8 and 18.6 µM (inactive) in the experiment with SK-OV-3.

For the molecule `Cc1occc1/C(S)=N\c1ccc(Cl)c(COC(C)(C)C)c1`, the GI50 in the experiment on RXF 393 is 14.9 µM (inactive); in the experiment with UO-31, 13.1 µM (inactive); with SW-620, 17.5 µM (inactive); with 786-0, 16.3 µM (inactive); with SK-MEL-2, 15.8 µM (inactive); in the experiment with IGROV-1 it was 15 µM (inactive). Moreover, the GI50 with Malme-3M was 16.5 µM (inactive); in the experiment with RPMI-8226 it was 14.2 µM (inactive); in the experiment with MOLT-4 it was 14.4 µM (inactive); in the experiment with HT-29 it was 15.7 µM (inactive); with ACHN, 17.3 µM (inactive); in the experiment with NCI-H460, 17.2 µM (inactive). Besides, the GI50 with SR is 17.6 µM (inactive); with CCRF-CEM, 23.9 µM (inactive); with KM12 it was 16.7 µM (inactive); with M14 it was 19.1 µM (inactive); with PC-3, 14.5 µM (inactive); in the experiment with TK-10 it was 19.4 µM (inactive). Moreover, the GI50 in the experiment on OVCAR-8 was 17.7 µM (inactive); with SK-OV-3 it was 17.1 µM (inactive).

For the molecule `CN(CCCNC(=O)c1nn(-c2ccccc2)c2c1ccc1ccccc12)CCCNC(=O)c1nn(-c2ccccc2)c2c1ccc1ccccc12`, the GI50 in the experiment on RXF 393 is 1.76 µM (inactive); in the experiment on UO-31, 1.52 µM (inactive); in the experiment with SW-620 it was 1.95 µM (inactive); in the experiment with 786-0, 2.01 µM (inactive); with SK-MEL-2, 1.69 µM (inactive); with IGROV-1 it was 1.65 µM (inactive). Besides, the GI50 was 1.77 µM (inactive) in the experiment on Malme-3M; 1.47 µM (inactive) in the experiment with RPMI-8226; 1.98 µM (inactive) in the experiment with MOLT-4; 1.84 µM (inactive) in the experiment on HT-29; 1.74 µM (inactive) with ACHN; 1.76 µM (inactive) in the experiment with NCI-H460. For the same molecule, the GI50 is 1.24 µM (inactive) in the experiment with SR; 0.178 µM (active) in the experiment on CCRF-CEM; 2.16 µM (inactive) in the experiment with KM12; 1.85 µM (inactive) in the experiment with M14; 1.52 µM (inactive) in the experiment with PC-3; 1.78 µM (inactive) in the experiment on TK-10. The GI50 was 1.85 µM (inactive) with OVCAR-8 and 1.83 µM (inactive) with SK-OV-3.

`CC1=NC(C)(C)[N+]([O-])=C1`: the GI50 with RXF 393, with UO-31, in the experiment on SW-620, in the experiment with 786-0, in the experiment with SK-MEL-2 and in the experiment with IGROV-1 was > 10 µM (inactive) throughout. Further, the GI50 is 8.73 µM (inactive) with Malme-3M; > 10 µM (inactive) in the experiment with RPMI-8226; > 10 µM (inactive) in the experiment on MOLT-4; > 10 µM (inactive) with HT-29; > 10 µM (inactive) with ACHN; > 10 µM (inactive) in the experiment with NCI-H460. For the same molecule, the GI50 with SR was 0.001 µM (active); in the experiment with CCRF-CEM it was > 10 µM (inactive); with KM12, > 10 µM (inactive); in the experiment with M14, > 10 µM (inactive); in the experiment with PC-3, > 10 µM (inactive); with TK-10, > 10 µM (inactive). The GI50 in the experiment on OVCAR-8 and in the experiment with SK-OV-3 was > 10 µM (inactive) throughout.

As to `C=CCNC(=O)NNC(O)(C(=O)OCC)C(F)(F)F` (stereo not given), the GI50 in the experiment on RXF 393, in the experiment with UO-31, with SW-620, with 786-0, in the experiment with SK-MEL-2 and in the experiment on IGROV-1 was > 100 µM (inactive) in each case. Besides, the GI50 in the experiment on Malme-3M, in the experiment on RPMI-8226, in the experiment on MOLT-4, in the experiment on HT-29, with ACHN and with NCI-H460 was > 100 µM (inactive) in each case. The GI50 with SR, with CCRF-CEM, in the experiment with KM12, in the experiment with M14, in the experiment with PC-3 and in the experiment with TK-10 was > 100 µM (inactive) throughout. Moreover, the GI50 in the experiment on OVCAR-8 and in the experiment with SK-OV-3 was > 100 µM (inactive) in each case.

With `CN(Cc1cnc2nc(N)nc(N)c2n1)c1ccc(C(=O)NC(CCC(=O)NCCC(P(=O)(O)O)P(=O)(O)O)C(=O)O)cc1` (stereo not given), the GI50 in the experiment on RXF 393 was > 100 µM (inactive); with UO-31, 22 µM (inactive); with SW-620, > 23.3 µM (inactive); in the experiment on 786-0 it was 6.11 µM (inactive); in the experiment on SK-MEL-2, > 49.5 µM (inactive); in the experiment on IGROV-1, 35.2 µM (inactive). For the same molecule, the GI50 in the experiment with Malme-3M was > 35.8 µM (inactive); in the experiment on RPMI-8226 it was 6.85 µM (inactive); in the experiment with MOLT-4 it was 6.5 µM (inactive); with HT-29 it was 6 µM (inactive); with ACHN, 11.5 µM (inactive); in the experiment on NCI-H460, 4.35 µM (inactive). Moreover, the GI50 is 3.17 µM (inactive) with SR; 6.08 µM (inactive) with CCRF-CEM; 6.38 µM (inactive) in the experiment with KM12; 4.85 µM (inactive) with M14; 1.79 µM (inactive) with PC-3; > 100 µM (inactive) in the experiment on TK-10. Further, the GI50 was 7.29 µM (inactive) in the experiment on OVCAR-8 and 1.13 µM (inactive) in the experiment with SK-OV-3.

On to `CCOC(=O)c1cc(NC(=O)c2ccccc2)c(=O)n2c(cc3c(Cl)cccc32)c1O`, for which the GI50 with RXF 393, in the experiment with UO-31, in the experiment with SW-620, in the experiment with 786-0, in the experiment on SK-MEL-2 and in the experiment on IGROV-1 was > 100 µM (inactive) throughout. Moreover, the GI50 in the experiment with Malme-3M was > 100 µM (inactive); with RPMI-8226, 80.4 µM (inactive); with MOLT-4 it was > 100 µM (inactive); with HT-29 it was > 100 µM (inactive); with ACHN, > 100 µM (inactive); with NCI-H460, > 100 µM (inactive). Further, the GI50 in the experiment on SR is > 100 µM (inactive); with CCRF-CEM, 95.5 µM (inactive); in the experiment with KM12, > 100 µM (inactive); in the experiment with M14 it was > 100 µM (inactive); in the experiment on PC-3 it was > 100 µM (inactive); in the experiment on TK-10 it was > 100 µM (inactive). Moreover, the GI50 in the experiment with OVCAR-8 and with SK-OV-3 was > 100 µM (inactive) throughout.
